Reference: the supplement of paper PMC10307832

Legend:
Assay in all cases: relative viability (nuclei count vs DMSO), 5 days (fraction); higher = more cells survive
[1] = compound: COc1ccc(-c2ccc3c(N4CCOC[C@@H]4C)nc(N4CCOC[C@@H]4C)nc3n2)cc1CO [AZD8055] + CC(=O)c1c(C)c2cnc(Nc3ccc(N4CCNCC4)cn3)nc2n(C2CCCC2)c1=O [Palbociclib] (partner 0.5 µM)
Summary of the method: (§1)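 Values are medians from duplicate plates. Each reflects relative viability, defined as the nuclei count of treated wells over that of vehicle wells. Lung cancer cell lines in 1536-well plates were pin-tool dosed one day after seeding with one drug alone or with a fixed anchor-drug dose plus five library-drug doses (not always all listed) in √10 steps, then fixed, stained and imaged at 4× after 5 days.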

[2] = compound: COc1ccc(-c2ccc3c(N4CCOC[C@@H]4C)nc(N4CCOC[C@@H]4C)nc3n2)cc1CO [AZD8055] + CC(C)C[C@H](NC(=O)[C@H](Cc1ccccc1)NC(=O)c1cnccn1)B(O)O [Bortezomib] (partner 0.002 µM)
Summary of the method: as §1

[3] = compound: COc1ccc(-c2ccc3c(N4CCOC[C@@H]4C)nc(N4CCOC[C@@H]4C)nc3n2)cc1CO [AZD8055] + Cc1nc(NC(=O)N2CCC[C@H]2C(N)=O)sc1-c1ccnc(C(C)(C)C(F)(F)F)c1 [Alpelisib] (partner 2 µM)
Summary of the method: as §1

[4] = compound: COc1ccc(-c2ccc3c(N4CCOC[C@@H]4C)nc(N4CCOC[C@@H]4C)nc3n2)cc1CO [AZD8055] + Cc1nc(Nc2ncc(C(=O)Nc3c(C)cccc3Cl)s2)cc(N2CCN(CCO)CC2)n1 [Dasatinib] (partner 0.075 µM)
Summary of the method: as §1

Row | Cell Line | relative viability ([1]; first compound 0.01 µM) | relative viability ([1]; first compound 0.03162 µM) | relative viability ([1]; first compound 0.1 µM) | relative viability ([1]; first compound 0.3162 µM) | relative viability ([1]; first compound 1 µM) | relative viability ([2]; first compound 0.01 µM) | relative viability ([2]; first compound 0.03162 µM) | relative viability ([2]; first compound 0.1 µM) | relative viability ([2]; first compound 0.3162 µM) | relative viability ([2]; first compound 1 µM) | relative viability ([3]; first compound 0.01 µM) | relative viability ([3]; first compound 0.03162 µM) | relative viability ([3]; first compound 0.1 µM) | relative viability ([3]; first compound 0.3162 µM) | relative viability ([3]; first compound 1 µM) | relative viability ([4]; first compound 0.01 µM) | relative viability ([4]; first compound 0.03162 µM) | relative viability ([4]; first compound 0.1 µM) | relative viability ([4]; first compound 0.3162 µM) | relative viability ([4]; first compound 1 µM)
1 | ABC-1 | 0.915 | 0.54 | 0.483 | 0.503 | 0.47 | 0.3 | 0.287 | 0.366 | 0.284 | 0.329 | 0.897 | 0.847 | 0.65 | 0.404 | 0.515 | 0.692 | 0.548 | 0.526 | 0.219 | 0.3
2 | HCC-15 | 0.858 | 0.687 | 0.667 | 0.369 | 0.275 | 1.17 | 1.1 | 0.976 | 0.663 | 0.615 | 0.86 | 0.769 | 0.639 | 0.366 | 0.282 | 0.615 | 0.541 | 0.477 | 0.273 | 0.174
3 | PC-3 [JPC-3] | 0.515 | 0.557 | 0.516 | 0.435 | 0.458 | 0.911 | 0.872 | 0.83 | 0.687 | 0.555 | 1.17 | 1.06 | 0.972 | 0.555 | 0.47 | 1.01 | 0.937 | 0.946 | 0.641 | 0.444
4 | NCI-H1993 | 0.596 | 0.47 | 0.39 | 0.408 | 0.404 | 0.886 | 0.706 | 0.599 | 0.568 | 0.586 | 0.679 | 0.629 | 0.632 | 0.623 | 0.638 | 0.528 | 0.448 | 0.505 | 0.524 | 0.542
5 | NCI-H1915 | 0.491 | 0.44 | 0.425 | 0.282 | 0.203 | 1.09 | 0.961 | 1.02 | 0.663 | 0.652 | 1.12 | 0.941 | 0.996 | 0.645 | 0.455 | 0.27 | 0.297 | 0.281 | 0.177 | 0.174
6 | RERF-LC-KJ | 1.11 | 1.09 | 0.779 | 0.441 | 0.412 | 1.18 | 0.921 | 0.748 | 0.528 | 0.569 | 0.77 | 0.576 | 0.552 | 0.4 | 0.442 | 0.946 | 0.753 | 0.607 | 0.284 | 0.343
7 | LOU-NH91 | 0.531 | 0.536 | 0.589 | 0.552 | 0.497 | 0.452 | 0.512 | 0.489 | 0.497 | 0.381 | 0.705 | 0.669 | 0.556 | 0.537 | 0.511 | 0.545 | 0.6 | 0.415 | 0.431 | 0.406
8 | NCI-H2347 | 0.428 | 0.44 | 0.384 | 0.346 | 0.352 | 0.704 | 0.944 | 0.598 | 0.438 | 0.401 | 1.19 | 0.934 | 0.674 | 0.467 | 0.413 | 0.307 | 0.29 | 0.252 | 0.235 | 0.213
9 | NCI-H2126 | 0.323 | 0.329 | 0.362 | 0.284 | 0.323 | 1.14 | 1.08 | 1.05 | 0.676 | 0.638 | 0.75 | 0.655 | 0.601 | 0.382 | 0.371 | 0.535 | 0.5 | 0.464 | 0.281 | 0.316
10 | HCC-827 | 0.482 | 0.406 | 0.381 | 0.227 | 0.181 | 1.2 | 1.04 | 1.11 | 0.935 | 1.08 | 0.974 | 0.863 | 0.736 | 0.305 | 0.254 | 0.334 | 0.273 | 0.258 | 0.241 | 0.167
11 | NCI-H3122 | 0.194 | 0.197 | 0.155 | 0.147 | 0.117 | 1.14 | 0.998 | 1.09 | 0.728 | 0.657 | 0.737 | 0.541 | 0.34 | 0.309 | 0.251 | 0.653 | 0.684 | 0.783 | 0.223 | 0.292
12 | HOP-62 | 0.428 | 0.441 | 0.414 | 0.171 | 0.172 | 0.669 | 0.747 | 0.969 | 0.304 | 0.469 | 1.26 | 1.18 | 0.667 | 0.434 | 0.26 | 0.741 | 0.554 | 0.556 | 0.272 | 0.171
